Results from US6482921B1, “Uridyl peptide antibiotic (UPA) derivatives, their synthesis and use” (Essential Therapeutics, Inc., priority 1999, dated 2002).
In brackets after ≈: the same amount, converted by molar mass.

Legend:
Assay type in all cases: cell-based
[1] = test system: Pseudomonas aeruginosa PAM 1020; test: MIC broth microdilution, P. aeruginosa PAM 1020 (wild type); conditions: P. aeruginosa PAM 1020
[2] = test system: Pseudomonas aeruginosa PAM 1154; test: MIC broth microdilution, P. aeruginosa PAM 1154 (OprM::Hg); conditions: P. aeruginosa PAM 1154 OprM::Hg
[3] = test system: Pseudomonas aeruginosa PAM 1135; test: MIC broth microdilution, P. aeruginosa PAM 1135 (high level UPA resistance); conditions: P. aeruginosa PAM 1135 UPA1^r
[4] = test system: Pseudomonas aeruginosa PAM 1323; test: MIC broth microdilution, P. aeruginosa PAM 1323 (medium level UPA resistance)
Method: Compounds were tested against several panels of bacteria. In a first panel, Table 3, several strains of Pseudomonas aeruginosa, Escherichia coli and Staphylococcus aureus were employed as the target bacteria.
For the bacteria in Table 3, the assay was performed in Mueller-Hinton Broth (MHB) with a final bacterial inoculum of 5×10^5 CFU/ml and a final volume of 100 μl. Control drugs, including imipenem and pacidimycin 4, and the test compounds were prepared at a concentration which was twice the desired final concentration (256 μg/ml). Dilution of the controls and the test compounds was accomplished directly on the test plates by serial 2-fold dilution using a multi-channel pipette. Both a positive and a negative growth control was included in each plate.
The bacterial inocula were prepared as follows. Bacterial strains were grown overnight at 35° C. in MHB. […] The culture was then diluted 1:10 and allowed to grow for an additional one hour at 35° C. in a shaking incubator. The inocula were then prepared by diluting the early log phase (one hour) cultures 1:2000 with fresh MHB. A volume of 50 μl of the inocula was added to each well, resulting in an inoculum of approximately 5×10^5 CFU/ml. The exact inocula were determined by putting 10 μl of 10-fold serial dilution of the bacterial suspensions onto TSA. After overnight incubation at 35° C., colony-forming units were counted manually.
The microtiter plates were incubated for 20 hours at 35° C. and were then read using a microtiterplate reader (Molecular Devices) at 650 nm as well as being visually observed using a microtiterplate reading mirror.

Escherichia Coli MC 4100 = test: MIC broth microdilution, E. coli MC 4100 (wild type); conditions: E. coli MC 4100
[5] = test system: Escherichia Coli MC 4100 AcrAB; test: MIC broth microdilution, E. coli MC 4100 AcrAB (ΔAcrAB); conditions: E. coli AcrAB
[6] = test system: Escherichia Coli MC 4100 AcrAB UPA3r; test: MIC broth microdilution, E. coli MC 4100 AcrAB UPA3r (ΔAcrAB, UPA resistant); conditions: E. coli AcrAB UPA3^r
[7] = test system: Staphylococcus aureus ATCC 29213; test: MIC broth microdilution, S. aureus ATCC 29213 (wild type); conditions: S. aureus ATCC 29213
[8] = test system: Staphylococcus aureus 8325-4; test: MIC broth microdilution, S. aureus 8325-4 (wild type); conditions: S. aureus 8325-4
[9] = test system: Pasteurella multocida pm002; test: MIC broth microdilution, P. multocida pm002 (wild type)

SMILES | MIC (μg/ml) Broth microdilution [1] | MIC (μg/ml) Broth microdilution [2] | MIC (μg/ml) Broth microdilution [3] | MIC (μg/ml) Broth microdilution [4] | MIC (μg/ml) Broth microdilution (Escherichia Coli MC 4100) | MIC (μg/ml) Broth microdilution [5] | MIC (μg/ml) Broth microdilution [6] | MIC (μg/ml) Broth microdilution [7] | MIC (μg/ml) Broth microdilution [8] | MIC (μg/ml) Broth microdilution [9]
CC(C(NC(=O)C(Cc1ccccc1)NC(=O)NC(Cc1ccc(O)cc1)C(=O)O)C(=O)NCC1CC(O)C(n2ccc(=O)[nH]c2=O)O1)N(C)C(=O)C(N)Cc1ccccc1 [Compound 100, 1-[5′-[(2S,3S)-N^2-[N-[[(1S)-1-Carboxy-4-hydroxyphenethyl]carbamoyl]-L-phenylalanyl]-N^3-L-phenylalanyl-N^3-methyl-2,3-diaminobutyramido]-3′,5′-dideoxy-α-L-arabinofuranosyl]uracil] | 32 µg/mL (≈ 38 µM) | 8 µg/mL (≈ 9.49 µM) | >512 µg/mL | >512 µg/mL | 8 µg/mL (≈ 9.49 µM) | <1 µg/mL | 2 µg/mL (≈ 2.37 µM) | >512 µg/mL | 512 µg/mL (≈ 607 µM) | 256 µg/mL (≈ 304 µM)
CC(C)CC(N)C(=O)N(C)C(C)C(NC(=O)C(Cc1ccccc1)NC(=O)NC(Cc1ccc(O)cc1)C(=O)O)C(=O)NCC1CC(O)C(n2ccc(=O)[nH]c2=O)O1 [Compound 101, 1-[5′-[(2S,3S)-N^2-[N-[[(1S)-1-Carboxy-4-hydroxyphenethyl]carbamoyl]-L-phenylalanyl]-N^3-L-leucyl-N^3-methyl-2,3-diaminobutyramido]-3′,5′-dideoxy-α-L-arabinofuranosyl]uracil] | 128 µg/mL (≈ 158 µM) | 8 µg/mL (≈ 9.89 µM) | >512 µg/mL | >512 µg/mL | >512 µg/mL | 2 µg/mL (≈ 2.47 µM) | 128 µg/mL (≈ 158 µM) | >512 µg/mL | >512 µg/mL | >512 µg/mL
CC(C(NC(=O)C(Cc1ccccc1)NC(=O)NC(Cc1ccc(O)cc1)C(=O)O)C(=O)NCC1CC(O)C(n2ccc(=O)[nH]c2=O)O1)N(C)C(=O)CN [Compound 102, 1-[5′-[(2S,3S)-N^2-[N-[[(1S)-1-Carboxy-4-hydroxyphenethyl]carbamoyl]-L-phenylalanyl]-N^3-glycyl-N^3-methyl-2,3-diaminobutyramido]-3′,5′-dideoxy-α-L-arabinofuranosyl]uracil] | 32 µg/mL (≈ 42.5 µM) | 8 µg/mL (≈ 10.6 µM) | >512 µg/mL | 512 µg/mL (≈ 680 µM) | 512 µg/mL (≈ 680 µM) | <1 µg/mL | 16 µg/mL (≈ 21.3 µM) | >512 µg/mL | 512 µg/mL (≈ 680 µM) | 256 µg/mL (≈ 340 µM)
CSCCC(NC(=O)NC(Cc1ccc(O)cc1)C(=O)O)C(=O)NC(C(=O)NCC1CC(O)C(n2ccc(=O)[nH]c2=O)O1)C(C)N(C)C(=O)CN [Compound 104, 1-[5′[(2S,3S)-N^2-(N-[[(1S)-1-Carboxy-4-hydroxyphenethyl]carbamoyl]-L-methionyl]-N^3-glycyl-N^3-methyl-2,3-diaminobutyramidol-3′,5′-dideoxy-α-L-arabinofuranosyl]uracil] | 32 µg/mL (≈ 43.4 µM) | 4 µg/mL (≈ 5.43 µM) | >512 µg/mL | <512 µg/mL | <512 µg/mL | 16 µg/mL (≈ 21.7 µM) | 128 µg/mL (≈ 174 µM) | >512 µg/mL | >512 µg/mL | 256 µg/mL (≈ 347 µM)
CC(C(NC(=O)C(Cc1ccc(F)cc1)NC(=O)NC(Cc1ccc(O)cc1)C(=O)O)C(=O)NCC1CC(O)C(n2ccc(=O)[nH]c2=O)O1)N(C)C(=O)C(N)Cc1ccc(F)cc1 [Compound 105, 1-[5′[(2S,3S)-N^2-[N-[[(1S)-1-Carboxy-4-hydroxyphenethyl]carbamoyl]-L-4-fluorophenylalanyl]-N^3-L-4-fluorophenylalanyl-N^3-methyl-2,3-diaminobutyramido]-3′,5′-dideoxy-α-L-arabinofuranosyl]uracil] | 256 µg/mL (≈ 291 µM) | 64 µg/mL (≈ 72.8 µM) | 256 µg/mL (≈ 291 µM) | 256 µg/mL (≈ 291 µM) | 512 µg/mL (≈ 583 µM) | 16 µg/mL (≈ 18.2 µM) | 512 µg/mL (≈ 583 µM) | >512 µg/mL | >512 µg/mL | 512 µg/mL (≈ 583 µM)
CC(C)CC(N)C(=O)N(C)C(C)C(NC(=O)C(Cc1ccc(F)cc1)NC(=O)NC(Cc1ccc(O)cc1)C(=O)O)C(=O)NCC1CC(O)C(n2ccc(=O)[nH]c2=O)O1 [Compound 107, 1-[5′[(2S,3S)-N^2-[N-[[(1S)-1-Carboxy-4-hydroxyphenethyl]carbamoyl]-L-4-fluorophenylalanyl]-N^3-L-leucyl-N^3-methyl-2,3-diaminobutyramido]-3′,5′-dideoxy-α-L-arabinofuranosyl]uracil] | 256 µg/mL (≈ 310 µM) | 64 µg/mL (≈ 77.4 µM) | >512 µg/mL | >512 µg/mL | 16 µg/mL (≈ 19.3 µM) | <1 µg/mL | 8 µg/mL (≈ 9.67 µM) | >512 µg/mL | >512 µg/mL | >512 µg/mL
CC(C)CC(N)C(=O)N(C)C(C)C(NC(=O)C(CC(C)C)NC(=O)NC(Cc1c[nH]c2ccccc12)C(=O)O)C(=O)NCC1CC(O)C(n2ccc(=O)[nH]c2=O)O1 [Compound 108, 1-[5′[(2S,3S)-N^2-[N-[[(1S)-1-Carboxy-2-indol-3-ylethyl]carbamoyl]-L-leucyl]-N^3-L-leucyl-N^3-methyl-2,3-diaminobutyramido]-3′,5′-dideoxy-α-L-arabinofuranosyl]uracil] | 256 µg/mL (≈ 321 µM) | 32 µg/mL (≈ 40.1 µM) | >512 µg/mL | 512 µg/mL (≈ 642 µM) | 256 µg/mL (≈ 321 µM) | <1 µg/mL | 16 µg/mL (≈ 20.1 µM) | >512 µg/mL | >512 µg/mL | 512 µg/mL (≈ 642 µM)
CSCCC(NC(=O)NC(Cc1c[nH]c2ccccc12)C(=O)O)C(=O)NC(C(=O)NCC1CC(O)C(n2ccc(=O)[nH]c2=O)O1)C(C)N(C)C(=O)C(N)Cc1ccc(F)cc1 [Compound 110, 1-[5′-[(2S,3S)-N^2-[N-[[(1S)-1-Carboxy-2-indol-3-ylethyl]carbamoyl]-L-methionyl]-N^3-L-4-fluorophenylalanyl-N^3-methyl-2,3-diaminobutyramido]-3′,5′-dideoxy-α-L-arabinofuranosyl]uracil] | 64 µg/mL (≈ 73.7 µM) | 32 µg/mL (≈ 36.9 µM) | 256 µg/mL (≈ 295 µM) | 256 µg/mL (≈ 295 µM) | 512 µg/mL (≈ 590 µM) | 16 µg/mL (≈ 18.4 µM) | 512 µg/mL (≈ 590 µM) | >512 µg/mL | >512 µg/mL | 512 µg/mL (≈ 590 µM)
CSCCC(NC(=O)NC(Cc1c[nH]c2ccccc12)C(=O)O)C(=O)NC(C(=O)NCC1CC(O)C(n2ccc(=O)[nH]c2=O)O1)C(C)N(C)C(=O)C(N)Cc1ccccc1 [Compound 111, 1-[5′-[(2S,3S)-N^2-[N-([(1S)-1-Carboxy-2-indol-3-ylethyl]carbamoyl]-L-methionyl]-N^3-L-phenylalanyl-N^3-methyl-2,3-diaminobutyramido]-3′,5′-dideoxy-α-L-arabinofuranosyl]uracil] | 128 µg/mL (≈ 151 µM) | 16 µg/mL (≈ 18.8 µM) | 256 µg/mL (≈ 301 µM) | 256 µg/mL (≈ 301 µM) | 512 µg/mL (≈ 602 µM) | 8 µg/mL (≈ 9.41 µM) | 512 µg/mL (≈ 602 µM) | >512 µg/mL | >512 µg/mL | 512 µg/mL (≈ 602 µM)
